Reference: US8754241B2, “Organic compound and electrochromic element having the same” (Canon Kabushiki Kaisha, priority 2012, dated 2014)
Values after ≈ are worked out from the molar mass of the structure shown.

Columns and labels:
Type in all cases: physicochemical
[1] = oxidation-reduction cycle durability test (cyclic voltammetry); details: dichloromethane; for change in oxidation peak current after 20,000 oxidation-reduction cycles (in words): 20,000 cycles; for Rate of Change in Oxidation Peak Current after Oxidation-Reduction Cycles for 20,000 Times: tetrabutylammonium perchlorate 0.1 mol/L, compound 1.0×10^−4 mol/L, initial current = 100%
Protocol: (§1) For the durability measurement, glassy carbon was used for a working electrode, platinum was used for a counter electrode, silver was used for a reference electrode, and a dichloromethane solution was used in which tetrabutylammonium perchlorate (0.1 mol/L) as a supporting electrolyte and each of the above compounds (1.0×10^−4 mol/L) were dissolved.
In this solution, a square-wave potential program including constant potential oxidation at +0.8 V (B-2 and B-1) or +1.2 V (XX-4) (vs. Ag/Ag^+), each of which was equal to or more than the oxidation potential of the corresponding compound, for 3 seconds and subsequent constant potential reduction at 0 V (vs. Ag/Ag^+) for 3 seconds was repeatedly performed 20,000 times.
The changes in oxidation peak current in cyclic voltammetry (CV) measurement before and after the oxidation-reduction cycles for 20,000 times are shown in Table.
In this table, the “rate of change in oxidation peak current” indicates a value obtained by adding the change in current from the initial current (represented by 100%) to the initial current.

[2] = ultraviolet-visible absorption spectrum in the neutral state, chloroform solution
Protocol: The exemplary compound B-2 thus obtained was dissolved in chloroform, and the absorption spectrum of this solution measured by using an ultraviolet-visible spectrophotometer (V-560 manufactured by JASCO Corporation) is shown in FIG. 2.

[3] = oxidation absorption spectrum / change in transmittance on constant potential oxidation; details: for shape and wavelength of the oxidation absorption peak with concentration (π-dimer formation): 5.0×10^−4 or 1.7×10^−4 mol/L; for transmittance after oxidation / light absorption peak in the oxidized state: constant potential oxidation at +0.9 V (vs. Ag/Ag+); for transmittance after oxidation: at the absorption peak
Protocol: as §1, with “the measurement of an oxidation absorption spectrum, platinum” for “the durability measurement, glassy carbon”, “(0.1 mol/l)” for “(0.1 mol/L)”, “compounds (5.0×10^−4 or 1.7×10^−4” for “compounds (1.0×10^−4”
In this solution, constant potential oxidation at +0.9 V (vs. Ag/Ag+), which was equal to or more than the oxidation potential of the compound, was performed, and the change in transmittance was measured.
The measurement of the oxidation absorption spectrum of the obtained compound D-11 was performed as in Example 4 using a dichloromethane solution in which tetrabutylammonium perchlorate (0.1 mol/L) and D-11 (5.0×10^−4 mol/L) were dissolved. […] This oxidation colored state was again returned to a colorless and transparent state by reduction, and the electrochromic characteristics in conformity with oxidation-reduction were confirmed. In addition, since the shape and the absorption wavelength of this oxidation absorption peak were not changed with the concentration, it was shown that as in Example 4, the formation of π-dimers was suppressed.

[4] = solubility in propylene carbonate solution of supporting electrolyte; details: propylene carbonate solution of LiCO4 (0.1 mol/L), organic solvent or mixture
Protocol: In addition, as one example of the element solvent, the solubility of the compound D-11 in a propylene carbonate solution of LiCO4 (supporting electrolyte, 0.1 mol/L) was confirmed. According to the result, it was confirmed that this compound was dissolved at a concentration of 9 mmol/L and that the solubility thereof was higher than the solubility (6 mmol/L) of the compound B-2 of Example 1. The reason for this is believed that since having an ester group-containing phenyl group at the 3-position of DTT, the compound D-11 has an improved solubility into propylene carbonate, which is a polar solvent.

| SMILES | change in oxidation peak current after 20,000 oxidation-reduction cycles (in words) [1] | Rate of Change in Oxidation Peak Current after Oxidation-Reduction Cycles for 20,000 Times [1] [%] | absorption in the visible light region [2] | λ max at which the absorption peak showed the maximum intensity [2] [nm] | shape and wavelength of the oxidation absorption peak with concentration (π-dimer formation) [3] | transmittance after oxidation [3] [%] | light absorption peak in the oxidized state ([3]; dichloromethane) | transmittance in the bleached state before oxidation ([3]; over the entire visible light region, dichloromethane) | solubility [4] [mM] |
| --- | --- | --- | --- | --- | --- | --- | --- | --- | --- |
| COc1cccc(OC)c1-c1sc2c(sc3c(-c4ccccc4)c(-c4c(OC)cccc4OC)sc32)c1-c1ccccc1 [B-1] | hardly observed | 98 | no absorption over the entire visible light region | 309.5 | not changed | 20.3 | approximately 510 nm | approximately 100% |  |
| COc1cccc(OC(C)C)c1-c1sc2c(sc3c(-c4ccccc4)c(-c4c(OC)cccc4OC(C)C)sc32)c1-c1ccccc1 [B-2] | hardly observed | 101 | no absorption over the entire visible light region | 307.5 | not changed |  |  |  | 6 (≈ 4060 µg/mL) |
| COC(=O)c1ccc(-c2c(-c3c(OC)cccc3OC(C)C)sc3c2sc2c(-c4ccc(C(=O)OC)cc4)c(-c4c(OC)cccc4OC(C)C)sc23)cc1 [D-11] |  |  | no absorption over the entire visible light region | 316.0 | not changed | 36.3 | 541.5 nm |  | 9 (≈ 7140 µg/mL) |
| CC(C)(C)c1cc2sc3cc(C(C)(C)C)sc3c2s1 [XX-4, reference compound] | decreased | 81 |  |  |  |  |  |  |  |
